The values that follow come from BindingDB's records for doi:10.1016/0960-894X(95)00174-R (1995).

Test [1] deals with Platelet-activating factor receptor (Oryctolagus cuniculus). Kind of test: In vitro ability to displace [3H]PAF from PAF receptor in rabbit platelet membranes.
Test [2] shares this target. Kind of test: In vitro inhibitory activity against PAF-induced aggregation of rabbit platelets.

Take `CCCCCCCCCCCCCCCCOC[C@H]1C[C@@H](COC(=O)N(Cc2cccc[n+]2CC)C(C)=O)O1` [2-{[Acetyl-((2S,4R)-4-hexadecyloxymethyl-oxetan-2-ylmethoxycarbonyl)-amino]-methyl}-1-ethyl-pyridinium; iodide]: the Ki (as a rule, the equilibrium dissociation constant of an inhibitor or competing ligand from its target) in test [1] came to 21 nM. Also, the IC50 (as a rule, the midpoint of a concentration-inhibition curve) in test [2] is 95 nM.

`CCCCCCCCCCCCCCCCCCNC(=O)OC[C@H]1C[C@H](COC(=O)N(Cc2cccc[n+]2CC)C(=O)c2ccc(OC)cc2)S1` [1-Ethyl-2-{[(4-methoxy-benzoyl)-(4-octadecylcarbamoyloxymethyl-thietan-2-ylmethoxycarbonyl)-amino]-methyl}-pyridinium; chloride] came in with an inhibition constant Ki in test [1] of 34 nM. In test [2], this compound registered an IC50 of 84 nM.

`CCCCCCCCCCCCCCCCNC(=O)OC[C@@H]1C[C@@H](COC(=O)N(Cc2cccc[n+]2CC)C(C)=O)S1` [2-{[Acetyl-((2S,4S)-4-hexadecylcarbamoyloxymethyl-thietan-2-ylmethoxycarbonyl)-amino]-methyl}-1-ethyl-pyridinium; chloride] showed a Ki in test [1] of 9.8 nM.

Consider `CCCCCCCCCCCCCCCCOC[C@@H]1C[C@@H](COC(=O)N(Cc2cccc[n+]2CC)C(C)=O)O1` [2-{[Acetyl-((2S,4S)-4-hexadecyloxymethyl-oxetan-2-ylmethoxycarbonyl)-amino]-methyl}-1-ethyl-pyridinium; iodide], for which, in test [1], the Ki was 15 nM. Moreover, the IC50 in test [2] was found to be 57 nM.

`CCCCCCCCCCCCCCCCCCNC(=O)OC[C@H]1C[C@H](COC(=O)N(Cc2cccc[n+]2CC)C(C)=O)C1` [2-{[Acetyl-(3-octadecylcarbamoyloxymethyl-cyclobutylmethoxycarbonyl)-amino]-methyl}-1-ethyl-pyridinium; iodide] registered a Ki in test [1] of 4.3 nM. This lies in the single-digit nanomolar range.

`CCCCCCCCCCCCCCCCCCNC(=O)OC[C@H]1C[C@H](COC(=O)N(Cc2cccc[n+]2CC)C(C)=O)S1` [2-{[Acetyl-((2R,4R)-4-octadecylcarbamoyloxymethyl-thietan-2-ylmethoxycarbonyl)-amino]-methyl}-1-ethyl-pyridinium; chloride] showed a Ki in test [1] of 4.3 nM. The compound further yielded an IC50 in test [2] of 57 nM.

In the case of `CCCCCCCCCCCCCCCCCCNC(=O)OC[C@H]1C[C@H](COC(=O)N(Cc2cccc[n+]2CC)C(C)=O)N1C(C)=O` [2-{[Acetyl-((2R,4R)-1-acetyl-4-octadecylcarbamoyloxymethyl-azetidin-2-ylmethoxycarbonyl)-amino]-methyl}-1-ethyl-pyridinium; chloride], the Ki in test [1] worked out at 35 nM.

As for `CCCCCCCCCCCCCCCCCCNC(=O)OC[C@H]1C[C@@H](COC(=O)N(Cc2cccc[n+]2CC)C(C)=O)S1` [2-{[Acetyl-((2S,4R)-4-octadecylcarbamoyloxymethyl-thietan-2-ylmethoxycarbonyl)-amino]-methyl}-1-ethyl-pyridinium; chloride], the Ki in test [1] stood at 9.8 nM. The IC50 in test [2] is 61 nM.

Compound `CCCCCCCCCCCCCCCCOC[C@H]1C[C@H](COC(=O)N(Cc2cccc[n+]2CC)C(C)=O)S1` [2-{[Acetyl-((2R,4R)-4-hexadecyloxymethyl-thietan-2-ylmethoxycarbonyl)-amino]-methyl}-1-ethyl-pyridinium; chloride] gave a Ki in test [1] of 20 nM. The same compound came in with an IC50 in test [2] of 52 nM.
